Test results from patent publication US11628198B2, “Methods for prevention and treatment of acute renal injury” (Cornell University, priority 2008, dated 2023).
Marks after values point to notes of the source that are not given here. Non-standard residues stand in square brackets, D forms with d. No end group written: not given here.

Legend:
CIN in patients = conditions: 443 patients randomly assigned; cited from earlier work
[1] = test system: ARI caused by ischemia-reperfusion (I/R); assay: I/R model of ARI: BUN and serum creatinine; type: in vivo, rat; conditions: 45 min ischemia and 24 h reperfusion; 3 mg/kg 30 min before ischemia and before reperfusion
Description: (§1) Sprague Dawley rats (250˜300 g) were assigned to four groups: (1) sham surgery group without I/R; (2) I/R+saline vehicle treatment; (3) I/R+SS-20 treatment; (4) I/R+SS-31 treatment. Each experimental group consisted of 8 rats. SS-20 and SS-31 (3 mg/kg, dissolved in saline) were administered to rats 30 min before ischemia and immediately before onset of reperfusion. The control rats were given saline alone on the same schedule.
(§2) Rats were anesthetized with a mixture of ketamine (90 mg/kg, i.p.) and xylazine (4 mg/kg, i.p.). The left renal vascular pedicle was occluded temporarily using a micro-clamp for 30 or 45 min. At the end of the ischemic period, reperfusion was established by removing of the clamp. At that time, the contralateral right kidney was removed. After 24 h reperfusion, animals were sacrificed and blood samples were obtained by cardiac puncture. Renal function was determined by blood urea nitrogen (BUN) and serum creatinine (BioAssay Systems DIUR-500 and DICT-500).
BUN and serum creatinine were assayed using kits from BioAssay Systems (DIUR-500 and DICT-500). […] The # indicates p<0.05 from the IR=saline group.

renal mitochondria = assay: I/R model: respiration of isolated renal mitochondria; type: in vivo, rat; conditions: after 45 min ischemia, pretreatment
Description: Results. The effects of the aromatic-cationic peptides of the invention on a model of ARI caused by ischemia-reperfusion were investigated. Renal mitochondria were isolated in accordance with the procedures described above and oxygen consumption was measured.
State 3 respiration was initiated with the addition of ADP.

[2] = test system: ARI caused by ischemia-reperfusion (I/R); assay: I/R model: renal morphologic examination (H&E, PAS); type: in vivo, rat; conditions: 45 min ischemia and 24 h reperfusion
Description: as §1, §2
Renal Morphologic Examination: Kidneys were fixed in 10% neutral-buffered formalin and embedded in paraffin wax. Three micron sections were stained with hematoxylin-eosin (H&E) and periodic acid-Schiff (PAS) and analyzed by light microscopy. Lesions were scored using the following criteria: [1] mitosis and necrosis of individual cells; [2] necrosis of all cells in adjacent proximal convoluted tubules with survival of surrounding tubules; [3] necrosis confined to the distal third of the proximal convoluted tubule with a band of necrosis extending across the inner cortex; and [4] necrosis affecting all three segments of the proximal convoluted tubule.

[3] = test system: ARI caused by ischemia-reperfusion (I/R); assay: I/R model: TUNEL assay for apoptosis; type: in vivo, rat; conditions: 30 min ischemia and 24 h reperfusion; 3 mg/kg
Description: as §1, §2
TUNEL Assay for Apoptosis: Renal tissue sections were deparaffinized and rehydrated by xylenes, graded alcohol series and deionized H2O, and then incubated in 20 μg/ml proteinase K for 20 min at RT. In situ cell death detection POD kit (Roche, IN, USA) was used according to the manufacturer's instructions. […]

[4] = test system: ATP content in renal tissue; assay: I/R model: ATP content assay of kidney tissue; type: in vivo, rat
Description: as §1, §2
ATP Content Assay: The kidney tissue was immediately put into 10 ml 5% trichloroacetic acid with 10 mM DTT, 2 mM EDTA and cut into small pieces. The tissue was homogenized on ice, incubated for another 10 min, centrifuged for 10 min at 2000×g, and neutralized with 10N KOH to pH 7.6. After centrifugation for 10 min at 2000×g, aliquots of the resulting supernatant were stored at −80° C. ATP was measured by bioluminescence (ATP bioluminescent kit, Sigma, MO, USA).

Row | Compound | incidence of CIN (CIN in patients) [%] | BUN [1] | serum creatinine [1] | renal mitochondrial oxygen consumption (state 3 respiration) (renal mitochondria) | histopathological score [2] | tubular cell injury (H&E, PAS) [2] | TUNEL-positive cells in the medulla (tubular cell apoptosis) [3] | ATP content in renal tissue ([4]; 1 h reperfusion following 45 min ischemia, vs vehicle) | ATP content in renal tissue ([4]; end of 15 min ischemia)
1 | C[C@H](O)C(=O)Nc1c(I)c(C(=O)NC(CO)CO)c(I)c(C(=O)NC(CO)CO)c1I [Iopamidol (Isovue 370), Iopamidol] | 8.2 | – | – | – | – | – | – | – | –
2 | F[dR]FK-NH2 [SS-20] | – | 130.7 ± 5.5# mg/dl | 1.06 ± 0.11# mg/dl | significantly improved oxygen consumption | significantly improved histopathological score | protected brush border and prevented necrosis in the proximal tubules | significantly prevented TUNEL-positive cells | significantly higher | not altered
